Reference: patent US4255575A, “2-Hydroxy-5-(1-hydroxy-2-piperazinylethyl)-benzoic acid derivatives” (priority 1979, dated 1981)

Legend:
α-adrenergic receptor [1] = assay: α-adrenergic receptor blocking activity in vitro, isolated rabbit aortic strip, norepinephrine agonist; type: cell-based
Experimental: (§1) α-Adrenergic receptor blocking activity is determined in vitro by performing cumulative dose-response experiments in the isolated rabbit aortic strip preparation using norepinephrine as the agonist. The contractile response of the rabbit strip preparation in the presence of logarithmically increasing concentrations of the compounds being tested are expressed as percent of the maximal attainable […]. Relative antagonistic potency is expressed as a pA2 value.

β-adrenergic receptor = molecular target: T1, β-adrenergic receptor (Cavia porcellus, UniProt H0W3H1); assay: β-adrenergic receptor blocking activity in vitro, isolated guinea pig atria, isoproterenol agonist; type: cell-based; conditions: for Kb: read-out: pA2 β (converted)
T1 construct: isolated guinea pig atria preparation; from tissue; host or cells: isolated guinea pig atria
T1 sequence (H0W3H1 1-470): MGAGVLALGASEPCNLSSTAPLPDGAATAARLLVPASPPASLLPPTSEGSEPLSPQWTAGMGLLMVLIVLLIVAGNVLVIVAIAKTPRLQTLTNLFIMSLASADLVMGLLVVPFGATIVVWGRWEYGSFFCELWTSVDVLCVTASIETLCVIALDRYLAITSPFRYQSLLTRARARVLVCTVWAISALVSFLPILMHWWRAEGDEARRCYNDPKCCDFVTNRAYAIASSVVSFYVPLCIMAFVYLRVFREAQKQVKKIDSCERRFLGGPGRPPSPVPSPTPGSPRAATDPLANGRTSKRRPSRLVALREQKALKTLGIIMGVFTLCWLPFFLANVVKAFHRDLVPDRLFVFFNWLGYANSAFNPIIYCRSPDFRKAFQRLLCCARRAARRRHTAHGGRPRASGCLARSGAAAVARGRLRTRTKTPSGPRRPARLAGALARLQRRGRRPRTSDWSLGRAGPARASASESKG
Experimental: as §1
β-Adrenergic receptor blocking activity is determined in vitro by performing cumulative dose-response experiments in the isolated guinea pig atria preparation using isoproterenol as the agonist. The response (increase in rate) of the guinea pig atria preparation in the presence of logarithmically increasing concentrations of the compounds being tested are expressed as percent of the maximal attainable response. Relative antagonistic potency is expressed as a pA2 value, as defined above.

guinea pig ileum = assay: direct spasmolytic activity in vitro, isolated guinea pig ileum, barium chloride agonist; type: cell-based
Experimental: as §1, with “value. […] Direct spasmolytic activity is determined in vitro by performing cumulative dose response experiments in the isolated guinea pig ileum preparation using barium chloride as the agonist. The contractile response of the guinea pig ileum preparation in the presence of logarithmically increasing concentrations of the compounds being tested are expressed as percent of the maximal attainable response. Relative antagonistic potency is expressed as a pA2 value, as defined above.” for “value.”

[2] = system: spontaneously hypertensive rats (SHR); assay: antihypertensive activity in spontaneously hypertensive rats, systolic blood pressure; type: in vivo, rat; conditions: 50 mg/kg per os
Experimental: Antihypertensive activity is determined in spontaneously hypertensive rats (SHR) of the Okomoto-Aoki strain. Systolic blood pressure of the SHR is measured from the caudal artery by means of an indirect method utilizing a photocell transducer/tail cuff occluder system. Time response relationships are determined for each compound following an oral dose of 50 mg/kg. Data are expressed as mm of Hg decrease from control values. Statistical significance is determined using a 2 tailed "t" test comparing drug treatment response values to those obtained from concurrent vehicle treated animals.

α-adrenergic receptor [3] = assay: α-adrenergic receptor blocking activity in vivo, anesthetized dog, phenylephrine agonist; conditions: iv
Experimental: (§2) α-Adrenergic receptor blocking activity is determined in vivo by performing cumulative dose-response experiments in the anesthetized dog using phenylephrine as the agonist. The increase in diastolic blood pressure produced by phenylephrine is determined in the absence and again in the presence of logarithmically increasing doses of the test compound. Relative antagonistic potency is expressed as DR10. DR10 is defined as the negative logarithm of the dose of the antagonist which increased by 10 times the dose of agonist necessary to produce 50% of the maximal attainable response.

[4] = system: β-adrenergic receptor (β2); assay: β-adrenergic receptor blocking activity in vivo, isoproterenol agonist, decrease in diastolic blood pressure (β2); conditions: anesthetized dog, iv
Experimental: as §2, with “response. […] Two responses, increase in cardiac rate (β1) and decrease in diastolic blood pressure (β2) are measured.” for “response.”

[5] = system: β-adrenergic receptor (β1); assay: β-adrenergic receptor blocking activity in vivo, isoproterenol agonist, increase in cardiac rate (β1); conditions: anesthetized dog, iv
Experimental: as §2, with “response. […] Two responses, increase in cardiac rate (β1) and decrease in diastolic blood pressure (β2) are measured.” for “response.”

Row | SMILES | Kb (β-adrenergic receptor) [µM] | pA2 β (β-adrenergic receptor) | pA2 α (α-adrenergic receptor [1]) | pA2 BaCl2 (guinea pig ileum) | Fall in Blood Pressure After: 1 hour [2] [mm Hg] | Fall in Blood Pressure After: 4 hours [2] [mm Hg] | DR10 (α) (α-adrenergic receptor [3]) [mg/kg iv] | DR10 (β2), decrease in diastolic blood pressure [4] [mg/kg iv] | DR10 (β1), increase in cardiac rate [5] [mg/kg iv]
1 | Cl.NC(=O)c1cc(C(O)CN2CCN(c3cccc(C(F)(F)F)c3)CC2)ccc1O (stereo not drawn) [Compound 3, 2-hydroxy-5-[1-hydroxy-2-[4-[3-(trifluoromethyl)phenyl]-1-piperazinyl]ethyl]benzamide monohydrochloride] | 0.126 | – | 6.33 | 5.74 | – | – | – | – | –
2 | COc1ccc(N2CCN(CC(O)c3ccc(O)c(C(N)=O)c3)CC2)cc1.Cl.Cl (stereo not drawn) [Compound 4, 2-hydroxy-5-[1-hydroxy-2-[4-(4-methoxyphenyl)-1-piperazinyl]ethyl]benzamide dihydrochloride] | 1.45 | – | 6.13 | < 4.28 | – | – | – | – | –
3 | Cl.NC(=O)c1cc(C(O)CN2CCN(c3ccc(Cl)cc3)CC2)ccc1O.O (stereo not drawn) [Compound 5, 5-[2-[4-(4-chlorophenyl)-1-piperazinyl]-1-hydroxyethyl]-2-hydroxybenzamide monohydrochloride, monohydrate] | 0.676 | – | 6.87 | 4.58 | 49 | 56 | – | – | –
4 | Cl.NC(=O)c1cc(C(O)CN2CCN(c3ccccc3)CC2)ccc1O.O (stereo not drawn) [Compound 6, 2-hydroxy-5-[1-hydroxy-2-(4-phenyl-1-piperazinyl)ethyl]benzamide monohydrochloride hydrate] | – | stimulant | 7.04 | 4.19 | – | – | – | – | –
5 | Cl.NC(=O)c1cc(C(O)CN2CCN(c3ccccn3)CC2)ccc1O.O (stereo not drawn) [Compound 8, 2-hydroxy-5-[1-hydroxy-2-[4-(2-pyridinyl)-1-piperazinyl]ethyl]benzamide monohydrochloride hydrate] | 4.27 | – | 6.08 | 3.90 | – | – | – | – | –
6 | CNC(=O)c1cc(C(O)CN2CCN(c3ccc(OC)cc3)CC2)ccc1O.Cl.O (stereo not drawn) [Compound 9, 2-hydroxy-5-[1-hydroxy-2-[4-(4-methoxyphenyl)-1-piperazinyl]ethyl]-N-methylbenzamide monohydrochloride hydrate] | 6.76 | – | 5.47 | 4.82 | – | – | – | – | –
7 | COc1ccc(C(O)CN2CCN(c3ccccc3)CC2)cc1C(N)=O.Cl (stereo not drawn) [Compound 12, 5-[1-hydroxy-2-(4-phenyl-1-piperazinyl)ethyl]-2-methoxybenzamide monohydrochloride] | > 10 | – | 6.54 | 4.19 | 33 | 25 | – | – | –
8 | CCOc1ccc(C(O)CN2CCN(c3ccccc3)CC2)cc1C(N)=O.Cl (stereo not drawn) [Compound 13, 2-ethoxy-5-[1-hydroxy-2-(4-phenyl-1-piperazinyl)ethyl]benzamide monohydrochloride] | 5.37 | – | 6.27 | 4.67 | – | – | – | – | –
9 | CC(CCc1ccccc1)NC(C)C(O)c1ccc(O)cc1 (stereo not drawn) [nylidrine, reference compound] | – | stimulant | – | – | – | – | – | – | –
10 | Cc1ccc(N(CC2=NCCN2)c2cccc(O)c2)cc1 [phentolamine, reference compound] | – | – | – | – | – | – | 2.65 | – | –

Now from value to compound, other results behind:

Row | Kb (β-adrenergic receptor) [µM] | pA2 β (β-adrenergic receptor) | SMILES | pA2 α (α-adrenergic receptor [1]) | pA2 BaCl2 (guinea pig ileum) | Fall in Blood Pressure After: 1 hour [2] [mm Hg] | Fall in Blood Pressure After: 4 hours [2] [mm Hg] | DR10 (α) (α-adrenergic receptor [3]) [mg/kg iv] | DR10 (β2), decrease in diastolic blood pressure [4] [mg/kg iv] | DR10 (β1), increase in cardiac rate [5] [mg/kg iv]
11 | 0.162 | – | COC(=O)c1cc(C(O)CN2CCN(c3ccccc3C)CC2)ccc1O.Cl (stereo not drawn) [Compound 1, methyl 2-hydroxy-5-[1-hydroxy-2-[4-(2-methylphenyl)-1-piperazinyl]ethyl]benzoate hydrochloride] | 7.45 | 6.06 | – | – | – | – | –
12 | 0.2 | – | Cc1ccccc1N1CCN(CC(O)c2ccc(O)c(C(N)=O)c2)CC1.Cl (stereo not drawn) [Compound 2, 2-hydroxy-5-[1-hydroxy-2-[4-(2-methylphenyl)-1-piperazinyl]ethyl]benzamide monohydrochloride] | 7.57 | 5.73 | 48 | 37 | 1.09 | > 10 | 15.3
13 | 0.363 | – | COc1ccccc1N1CCN(CC(O)c2ccc(O)c(C(N)=O)c2)CC1.Cl (stereo not drawn) [Compound 7, 2-hydroxy-5-[1-hydroxy-2-[4-(2-methoxyphenyl)-1-piperazinyl]ethyl]benzamide monohydrochloride] | 7.42 | 4.87 | 45 | 35 | – | – | –
14 | – | stimulant | CNC(=O)c1cc(C(O)CN2CCN(c3ccccc3OC)CC2)ccc1O.Cl.O (stereo not drawn) [Compound 10, 2-hydroxy-5-[1-hydroxy-2-[4-(2-methoxyphenyl)-1-piperazinyl]ethyl]-N-methylbenzamide monohydrochloride monohydrate] | 7.95 | 5.02 | 44 | 52 | – | – | –
15 | 0.468 | – | Cc1ccccc1N1CCN(CC(O)c2ccc(O)c(C(=O)NCC(C)(C)C)c2)CC1.Cl (stereo not drawn) [Compound 11, N-(2,2-dimethylpropyl)-2-hydroxy-5-[1-hydroxy-2-[4-(2-methylphenyl)-1-piperazinyl]ethyl]benzamide monohydrochloride] | 7.21 | 6.65 | 41 | 32 | – | – | –
16 | 0.724 | – | Cc1ccccc1N1CCN(CC(O)c2ccc(O)c(-c3nnn[nH]3)c2)CC1.Cl.O (stereo not drawn) [Compound 14, α-(4-Hydroxy-3-1H-tetrazol-5-ylphenyl)-4-(2-methylphenyl)-1-piperazineethanol Monohydrochloride Monohydrate] | 7.56 | < 4 | 48 | – | – | – | –
